{"source": "patent US20260297508A1", "about": "“MODULATORS OF PROTEIN SECRETION” (SANOFI, priority 2023, published 2026)", "key": {"[1]": {"system": "GFP-tagged RUSH antibody trafficking, U2OS clone #7 cells", "assay": "Time lapse / fluorescence microscopy of GFP-tagged antibody trafficking in clone #7", "type": "cell-based, human", "excerpt": "(§1) FIGS. 2A-2F show characterization of the anti-PD-L1 antibody RUSH system. […] Molecular mass standards (in kDa) are indicated on the left in panel FIG. 2D. The structures of the proteins detected by immunoblot are indicated based on the scheme shown in FIG. 1B and include antibody heavy and light chains, GFP, SBP, and a linker with a furin cleavage site. The truncated shape at the antibody C-terminus represents linker residues left after cleavage by furin. Results are representative of at least 3 independent experiments.\nU2OS clone #7 cells were seeded in black 96-well imaging plates (Greiner bio one, Kremsmünster, Austria). After 24 h, the medium was removed, cells were rinsed with 37° C. pre-heated PBS and fixed in PBS supplemented with 4% paraformaldehyde (PFA, Sigma) and 1 μg/mL Hoechst (Life Technologies, Carlsbad, CA, USA) for 20 min under agitation at room temperature (RT). Cells were rinsed with PBS before addition of a 5% FBS/0.3% Triton X-100/PBS permeabilizing solution for 30 min under agitation at RT. Cells were rinsed with PBS and incubated overnight under agitation at 4° C. with the primary antibody in 1% BSA/PBS. Cells were washed with PBS and incubated for 45 min under agitation at RT with the secondary antibody in 1% BSA/PBS. Finally, cells were washed, and processed for image acquisition using an IXM XL BioImager (Molecular Devices, Sunnyvale, CA)."}, "[2]": {"system": "RUSH antibody release and furin processing, U2OS clone #7 cells", "assay": "Western blot of cell lysates and concentrated supernatants of clone #7", "type": "cell-based, human", "conditions": "40 μM biotin, 4 h; FIG. 2C", "excerpt": "as §1\nU2OS clone #7 cells were seeded in T-175 flasks and kept for 24 h at 37° C. in a humidified incubator with 5% CO2. […] At the end of the incubation time, cells were harvested and lysed in RIPA buffer (Thermo Fisher Scientific) supplemented with protease and phosphatase inhibitors (Roche, Basel, Switzerland). Additionally, cell culture supernatants were collected and concentrated ~100-fold in Amicon 50 kDa filter unit (Sigma) according to the manufacturer's instructions. Cell lysate and concentrated supernatant protein concentrations were determined using the BCA™ protein assay kit (Thermo Fisher Scientific). […] The membranes were then washed 3 times for 5 min with 0.01% Tween-20/TBS and peroxidase activity was evaluated with Amersham ECL Primer Western Blotting Detection Reagent (GE Healthcare, Little Chalfont, UK) on ImageQuant™ LAS4000 (GE Healthcare)."}, "[3]": {"system": "biotin-induced antibody release, U2OS clone #7 cells", "assay": "High-throughput RUSH screen: biotin-induced cytoplasmic GFP signal decay (antibody release), U2OS clone #7", "type": "cell-based, human", "procedure": "FIGS. 4A-4C show the high-throughput screening of chemical compound libraries for the identification of modulators of protein secretion. […] U2OS clone #7 is plated in 384-well plates and incubated for 24 h before treatment with each compound of the Prestwick, ICCB Known Bioactives, or Autophagy Compound Library at 2 concentrations, low and high (with a 10-fold difference). […] The results of the Prestwick library screening at the low drug concentration are plotted. Brefeldin A was used as a positive control of the inhibition of secretion. The compounds causing a cytoplasmic GFP intensity below that observed for biotin-only treated cells are potential enhancers of protein secretion.\nU2OS cells were transfected with the streptavidin-KDEL plasmid using Lipofectamine 2000 (Thermo Fisher Scientific) and selected in medium supplemented with G418 (400 μg/mL, Gibco-Invitrogen) for 2 weeks. Limiting dilution in 96-well plates was used for single cell isolation from the selected pool. Clones were amplified and selected based on streptavidin immunofluorescence. Clone #BD6 showing the highest streptavidin expression was further expanded in medium supplemented with G418 (200 μg/mL) and transfected with the anti-PD-L1 IgG RUSH plasmid using Lipofectamine 2000 and selected in medium supplemented with G418 (200 μg/mL) and hygromycin (100 μg/mL, Santa Cruz Biotechnology) for 2 weeks. Limiting dilution in 96-well plates was used for single cell isolation from clone #BD6-derived selected pool. Clones were amplified and selected based on GFP fluorescence and clone #7 was selected for further characterization and screening campaigns.\nU2OS clone #7 cells were seeded in black 384-well imaging plates (Greiner bio one), 2,000 cells/well, and incubated for 24 h at 37° C. in a humidified incubator with 5% CO2. Cells were treated on the next day with the compounds from either the Prestwick library at […], the ICCB Known Bioactives library at 1/100^e or 1/1000^e, or the autophagy compound library at 10 μM or 1 μM for 4 h. […] Cells were then fixed as described above and processed for subsequent automated image acquisition using a robot-assisted IXM XL BioImager (Molecular Devices, Sunnyvale, CA, USA) equipped with a Sola light source (Lumencor, Beaverton, OR, USA), adapted excitation and emission filters (Semrock) a 16-bit monochrome sCMOS PCO.edge 5.5 camera (PCO, Kelheim, Germany). A 20× PlanAPO objective (Nikon, Tokyo, Japan) was used to acquire a minimum of 4 view fields in each well. The acquired images were processed using the open-access R software (https://www.r-project.org) with the help of freely available packages EBImage (available on the Bioconductor repository https://www.bioconductor.org), and RBioFormats (https://github.com/aoles/RBioFormats), and the custom packages MetaxpR (https://github.com/asauvat/MetaxpR) and MorphR (https://github.com/kroemerlab/MorphR). Nuclei were first detected using Hoechst 33342 signal and used as a marker to detect cytoplasmic areas based on GFP signal, allowing for the evaluation of cytoplasmic GFP intensity. Data were thereafter extracted and statistically evaluated using R (https://www.r-project.org). Data were normalized using negative and positive controls, reduced and transformed into a Z-score. The experiments were repeated manually at low scale with selected drugs to confirm their effects on secretion, in this second set of assays, U2OS clone #7 cells incubated with secretion inhibitors were fixed and stained with Hoechst as described above for imaging and viability determination based on cell counts.\nWe next sought to use clone #7 in screening campaigns for the identification of drugs capable of enhancing or inhibiting antibody secretion. […] Cell counting was facilitated by nuclear counterstaining with Hoechst 33324 in order to assess viability and distinguish drug effects on the secretion kinetics from direct cytotoxicity and select relevant drugs for further characterization. […]"}, "D3/D2 receptor": {"system": "D3/D2 receptor", "conditions": "cited from earlier work"}, "D1 receptors": {"system": "D1 receptors", "conditions": "cited from earlier work"}, "CHO-K1 cells": {"system": "CHO-K1 cells", "assay": "Flow cytometry binding to PD-L1neg parental CHO cells", "conditions": "FACS", "excerpt": "(§2) FIGS. 3A-F show the characterization of the binding capacity of the anti-PD-L1 RUSH antibody released through the biotin-activated RUSH system (FIGS. 3A, 3C, and FIG. 3E) Schematic representation of the antibody binding to PD-L1^pos cells and detection by flow cytometry. […] Dark grey, binding to PD-L1^pos CHO cells (CHO-PDL1); light grey, binding to PD-L1^neg parental CHO cells (CHO-K1). Antibody binding is detected by means of an indirect immunofluorescence assay with a secondary anti-Fc APC conjugated or by direct measurement of GFP fluorescence.\n(§3) Human osteosarcoma U2OS cells obtained from the Kroemer lab were maintained at 37° C. in a humidified incubator with 5% CO2 in Dulbecco's Modified Eagle Medium (DMEM) supplemented with 10% Fetal Bovine Serum (FBS), 1% penicillin-streptomycin and 1% HEPES (Gibco, Carlsbad, CA). CHO-K1 (CCL-61) cells were obtained from the ATCC and cultured at 37° C. in a humidified incubator with 5% CO2 in Nutrient Mixture F-12 Ham's (Sigma, Saint-Louis, MO) supplemented with 10% FBS and 2 mM L-Glutamine (Gibco). PD-L1-expressing CHO cells were cultured in similar conditions in medium supplemented with 7.5 μg/mL puromycin (Gibco). The Prestwick, the BML-2840 ICCB Known Bioactives and the Autophagy Compounds libraries were purchased from Prestwick Chemicals (Illkirch, France), Enzo Life Sciences (Farmingdale, NY), and TargetMol (Boston, MA), respectively. […]"}, "[4]": {"system": "human PD-L1 (CHO-PDL1 cells)", "assay": "Flow cytometry binding to PD-L1-expressing CHO cells", "conditions": "FACS", "excerpt": "as §2, §3"}}}
{"compound": "O=C(O)CCCC[C@@H]1SC[C@@H]2NC(=O)N[C@@H]21", "note": "[biotin]", "values": [{"measurement": "time of relocation of the GFP signal to the Golgi apparatus", "setting": "[1]; 40 μM biotin", "result": "40 to 120", "unit": "min"}, {"measurement": "time to complete cytoplasmic GFP signal decay", "setting": "[1]; 40 μM biotin", "result": "≤ 4", "unit": "h"}, {"measurement": "GFP/streptavidin co-localization", "setting": "[1]; 4 h after addition of biotin, FIG. 2B", "result": "lost 4 h after addition of biotin"}, {"measurement": "Pearson's correlation coefficient (PCC), hook / GFP-tagged antibody colocalization", "setting": "[1]; in the presence of biotin, 4 h, FIG. 2B", "result": 0.29}, {"measurement": "Western blot signal intensity in cell lysate", "setting": "[2]", "result": "intensity of the signal was lower"}]}
{"compound": "CCCN(CCC)CCc1cccc2c1CC(=O)N2", "note": "[ropinirole, 4-[2-(dipropylamino)ethyl]-1,3-dihydroindol-2-one]", "values": [{"measurement": "secretion activator at both low and high concentration (consistently decreased fluorescent signal, among 20 best activators)", "setting": "[3]; Prestwick library, low and high concentration, 4 h compound, then 40 μM biotin 1 h", "result": "fulfilled these criteria"}, {"measurement": "decrease of intracytoplasmic GFP fluorescence signal (biotin-stimulated RUSH system)", "setting": "[3]; screening campaigns, summary", "result": "consistently decreased intracytoplasmic GFP fluorescence"}, {"measurement": "D3/D2 receptor agonism", "setting": "D3/D2 receptor", "result": "potent D3/D2 receptor agonist"}, {"measurement": "affinity for D1 receptors", "setting": "D1 receptors", "result": "no affinity"}]}
{"compound": "anti-PD-L1: reference anti-human PD-L1 antibody produced from published Atezolizumab heavy and light chains sequences", "values": [{"measurement": "binding to CHO-K1 cells", "setting": "CHO-K1 cells", "result": "not PD-L1^neg CHO (CHO-K1) cells"}, {"measurement": "binding to CHO-PDL1 cells", "setting": "[4]", "result": "binding to PD-L1^pos (CHO-PDL1)"}]}
